Source: ChEMBL document CHEMBL1201862, “PubChem BioAssay data set” (2004)
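1) Cells in 96-well plates. 2) Compound, 48 h, 5 concentrations. 3) Linear interpolation between surrounding doses. 4) Unreached endpoint = highest concentration. GI50 is the concentration that inhibits growth by half.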 Active and inactive are the calls of the source. Cut-off read from the data, not from the text of the source: active = GI50 up to about 1.1 µM and inactive = higher.

Experiments:
Assay in all cases: NCI-60 cell line screen, 48 h
[1] = test system: SK-OV-3
[2] = test system: COLO 205
[3] = test system: SNB-19
[4] = test system: MOLT-4
[5] = test system: NCI-H522
[6] = test system: ACHN
[7] = test system: TK-10
[8] = test system: HCT-15
[9] = test system: KM12
[10] = test system: SF-539
[11] = test system: OVCAR-3
[12] = test system: SF-268
[13] = test system: OVCAR-4
[14] = test system: SW-620
[15] = test system: RXF 393
[16] = test system: HCC 2998

In the case of `Oc1ccc(-c2n[nH]c(S)n2)cc1`, the GI50 [1] is reported as > 100 µM (inactive), the GI50 [2] is reported as > 100 µM (inactive) and the GI50 [3] is reported as > 100 µM (inactive). For the same compound, the GI50 [4] was > 100 µM (inactive), the GI50 [5] was > 100 µM (inactive) and the GI50 [6] was > 100 µM (inactive). The GI50 [7] was > 100 µM (inactive), the GI50 [8] was > 100 µM and the GI50 [9] was > 100 µM (inactive). The GI50 [10] was > 100 µM (inactive), the GI50 [11] was > 100 µM (inactive) and the GI50 [12] was > 100 µM (inactive). The GI50 [13] was > 100 µM (inactive) and the GI50 [14] was > 100 µM (inactive).

For `COC(=O)C(C(=O)C(=O)Nc1ccc(C)cc1C)c1nc2ccc([N+](=O)[O-])cc2nc1O` (centres undefined), the GI50 [1] was > 100 µM (inactive), the GI50 [15] was > 100 µM (inactive) and the GI50 [2] was 95.7 µM (inactive). The GI50 [3] was > 100 µM (inactive), the GI50 [4] was > 100 µM (inactive) and the GI50 [5] was 60.3 µM (inactive). The GI50 [6] was > 100 µM (inactive), the GI50 [7] was > 100 µM (inactive) and the GI50 [8] was > 100 µM. The GI50 [9] was > 100 µM (inactive), the GI50 [10] was > 100 µM (inactive) and the GI50 [12] was > 100 µM (inactive). For the same compound, the GI50 [13] was > 100 µM (inactive) and the GI50 [14] was > 100 µM (inactive).

`CC(=O)OCC1OC(n2c(=O)[nH]c(=O)c3nn[nH]c32)C(OC(C)=O)C(OC(C)=O)C1OC(C)=O` (centres undefined) was tested, and the GI50 [1] was > 100 µM (inactive), the GI50 [15] was > 100 µM (inactive) and the GI50 [2] was > 100 µM (inactive). The GI50 [3] was > 100 µM (inactive), the GI50 [4] was > 100 µM (inactive) and the GI50 [5] was > 100 µM (inactive). For the same compound, the GI50 [6] was > 100 µM (inactive), the GI50 [7] was > 100 µM (inactive) and the GI50 [8] was > 100 µM. The GI50 [16] was > 100 µM (inactive), the GI50 [12] was > 100 µM (inactive) and the GI50 [13] was 66.5 µM (inactive). For the same compound, the GI50 [14] was > 100 µM (inactive).

For `Cc1ccc(/C=C(\NC(=O)c2ccccc2)c2nc3ccccc3[nH]2)cc1`, the GI50 [15] was > 100 µM (inactive), the GI50 [2] was 48.2 µM (inactive) and the GI50 [3] was 39.4 µM (inactive). The GI50 [5] was 42.2 µM (inactive), the GI50 [6] was 47.5 µM (inactive) and the GI50 [7] was > 100 µM (inactive). For the same compound, the GI50 [8] was 45.6 µM, the GI50 [9] was 40.6 µM (inactive) and the GI50 [10] was > 100 µM (inactive). For the same compound, the GI50 [16] was 49.5 µM (inactive), the GI50 [11] was 46.9 µM (inactive) and the GI50 [12] was 60.8 µM (inactive). For the same compound, the GI50 [13] was 70.5 µM (inactive) and the GI50 [14] was 50.4 µM (inactive).

In the case of `O=C(O)C12C3CCC(C3)C1(C(=O)O)C1CCC2C1` (centres undefined), the GI50 [1] is reported as > 100 µM (inactive), the GI50 [15] is reported as 34.4 µM (inactive) and the GI50 [2] is reported as 33 µM (inactive). For the same compound, the GI50 [3] was > 100 µM (inactive), the GI50 [4] was > 100 µM (inactive) and the GI50 [5] was 14.7 µM (inactive). For the same compound, the GI50 [6] was > 100 µM (inactive), the GI50 [7] was > 100 µM (inactive) and the GI50 [8] was 39.8 µM. The GI50 [9] was > 100 µM (inactive), the GI50 [16] was > 100 µM (inactive) and the GI50 [11] was > 100 µM (inactive). The GI50 [12] was > 100 µM (inactive) and the GI50 [14] was 18.4 µM (inactive).

For `CNC(=O)NCNC(=O)NC`, the GI50 [1] was > 100 µM (inactive), the GI50 [2] was > 100 µM (inactive) and the GI50 [4] was > 100 µM (inactive). The GI50 [7] was > 100 µM (inactive), the GI50 [8] was > 100 µM and the GI50 [9] was > 100 µM (inactive). For the same compound, the GI50 [10] was > 100 µM (inactive), the GI50 [16] was > 100 µM (inactive) and the GI50 [11] was > 100 µM (inactive). For the same compound, the GI50 [13] was > 100 µM (inactive) and the GI50 [14] was > 100 µM (inactive).

In the case of `COc1cc2ccnc3c2c(c1OC)CC1CC(O)C(OC)CC31` (centres undefined), the GI50 [1] is reported as > 100 µM (inactive), the GI50 [2] is reported as 43.2 µM (inactive) and the GI50 [3] is reported as 99.3 µM (inactive). The GI50 [4] was 33.3 µM (inactive), the GI50 [5] was 60.1 µM (inactive) and the GI50 [6] was 44.4 µM (inactive). The GI50 [7] was 53.8 µM (inactive), the GI50 [8] was 63.8 µM and the GI50 [9] was 40.9 µM (inactive). For the same compound, the GI50 [10] was 24.4 µM (inactive), the GI50 [16] was 42.7 µM (inactive) and the GI50 [11] was 82.2 µM (inactive). For the same compound, the GI50 [13] was > 100 µM (inactive) and the GI50 [14] was 33.7 µM (inactive).

In the case of `Cc1nc(N)nc(N)c1CCCCc1ccc(N)cc1`, the GI50 [1] is reported as 2.88 µM (inactive), the GI50 [2] is reported as 10.4 µM (inactive) and the GI50 [3] is reported as 6.87 µM (inactive). The GI50 [4] was 1.58 µM (inactive), the GI50 [5] was 4.26 µM (inactive) and the GI50 [6] was 4.12 µM (inactive). The GI50 [7] was 11.5 µM (inactive), the GI50 [8] was 4.09 µM and the GI50 [9] was 9.35 µM (inactive). The GI50 [10] was 7.98 µM (inactive), the GI50 [16] was 3.25 µM (inactive) and the GI50 [11] was 5.53 µM (inactive). For the same compound, the GI50 [12] was 0.995 µM (active), the GI50 [13] was 10.6 µM (inactive) and the GI50 [14] was 3.29 µM (inactive).

For `O=C(c1ccco1)N(C(=S)N1CCN(c2ccccc2)CC1)c1ccccc1`, the GI50 [1] was > 100 µM (inactive), the GI50 [15] was > 100 µM (inactive) and the GI50 [2] was > 100 µM (inactive). For the same compound, the GI50 [3] was > 100 µM (inactive), the GI50 [4] was > 100 µM (inactive) and the GI50 [5] was > 100 µM (inactive). For the same compound, the GI50 [6] was > 100 µM (inactive), the GI50 [7] was > 100 µM (inactive) and the GI50 [8] was > 100 µM. The GI50 [9] was > 100 µM (inactive), the GI50 [10] was > 100 µM (inactive) and the GI50 [11] was > 100 µM (inactive). The GI50 [12] was > 100 µM (inactive), the GI50 [13] was > 100 µM (inactive) and the GI50 [14] was > 100 µM (inactive).

In the case of `COc1cc(C2(C)SCCCS2)cc(OC)c1OC`, the GI50 [1] is reported as > 100 µM (inactive), the GI50 [2] is reported as > 100 µM (inactive) and the GI50 [3] is reported as > 100 µM (inactive). The GI50 [4] was > 100 µM (inactive), the GI50 [5] was > 100 µM (inactive) and the GI50 [6] was > 100 µM (inactive). For the same compound, the GI50 [7] was > 100 µM (inactive), the GI50 [8] was > 100 µM and the GI50 [9] was > 100 µM (inactive). The GI50 [10] was > 100 µM (inactive), the GI50 [16] was > 100 µM (inactive) and the GI50 [11] was > 100 µM (inactive). For the same compound, the GI50 [12] was > 100 µM (inactive), the GI50 [13] was > 100 µM (inactive) and the GI50 [14] was > 100 µM (inactive).
